The values below come from US11612606B2, “8-aminoisoquinoline compounds and uses thereof” (priority 2018, dated 2023).

Where two headings read alike, the source gives them in different places.

The assay deals with HPK full length, T165E S171E (Homo sapiens (Human), UniProt Q92918, S171E/T165E). Kind of assay: HPK1-FL HTRF enzymatic assay ("HTRF"). The assay is classed as biochemical. The note with it: ATP 1 mM. Put shortly: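 HTRF detection of phosphorylated biotin-SLP-76 used Eu-anti-pSLP76 antibody and SA-XL665, read after 60 min. The kinase reaction ran 60 min at […], following a 30-min compound preincubation with the full-length enzyme.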
HPK full length, T165E S171E, sequence (Q92918 whole entry T165E/S171E, looked up): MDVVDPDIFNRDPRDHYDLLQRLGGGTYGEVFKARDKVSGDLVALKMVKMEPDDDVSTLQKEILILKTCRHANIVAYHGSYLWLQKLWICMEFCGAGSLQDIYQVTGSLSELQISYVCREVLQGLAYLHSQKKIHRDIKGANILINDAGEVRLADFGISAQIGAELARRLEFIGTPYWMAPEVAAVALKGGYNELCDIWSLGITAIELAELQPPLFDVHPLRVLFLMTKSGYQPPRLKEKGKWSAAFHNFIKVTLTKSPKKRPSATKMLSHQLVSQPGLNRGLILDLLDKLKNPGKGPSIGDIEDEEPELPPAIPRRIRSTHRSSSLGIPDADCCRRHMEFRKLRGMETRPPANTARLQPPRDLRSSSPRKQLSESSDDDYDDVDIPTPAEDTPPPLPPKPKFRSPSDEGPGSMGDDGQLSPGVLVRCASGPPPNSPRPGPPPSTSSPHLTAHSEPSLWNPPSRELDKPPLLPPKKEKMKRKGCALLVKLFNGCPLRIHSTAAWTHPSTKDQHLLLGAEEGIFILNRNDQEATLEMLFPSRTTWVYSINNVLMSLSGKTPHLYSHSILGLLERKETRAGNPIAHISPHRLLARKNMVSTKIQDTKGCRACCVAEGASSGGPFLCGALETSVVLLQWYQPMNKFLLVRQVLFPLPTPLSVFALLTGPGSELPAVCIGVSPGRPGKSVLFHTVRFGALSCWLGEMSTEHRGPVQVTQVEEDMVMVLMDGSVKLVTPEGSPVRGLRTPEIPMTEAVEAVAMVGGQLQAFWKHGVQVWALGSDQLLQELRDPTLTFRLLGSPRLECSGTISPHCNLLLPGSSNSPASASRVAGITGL

Usually Ki stands for the dissociation constant of the complex between target and ligand, obtained from inhibition or displacement. Consider `Cc1c(-c2cc3cc(NC(=O)OC4CC5(CCNCC5)C4)ncc3c(N)c2F)cnc2c1NCCO2` [Compound 580, 7-Azaspiro[3.5]nonan-2-yl (8-amino-7-fluoro-6-(8-methyl-2,3-dihydro-1H-pyrido[2,3-b][1,4]oxazin-7-yl)isoquinolin-3-yl)carbamate], for which the inhibition constant (Ki) (read-out: HPK1 Ki) is < 0.013 nM.

`Cc1c(-c2cc3cc(NC(=O)SC4CCOCC4)ncc3c(N)c2F)cnc2c1NCCO2` [Compound 601, S-Tetrahydropyran-4-yl N-[8-amino-7-fluoro-6-(8-methyl-2,3-dihydro-1H-pyrido[2,3-b][1,4]oxazin-7-yl)-3-isoquinolyl]carbamothioate]: the Ki (read-out: HPK1 Ki) was < 0.013 nM.

Take `Cc1c(-c2cc3cc(NC(=O)NC4CC4)ncc3c(N)c2F)cnc2c1NCCO2` [Compound 702, 1-(8-Amino-7-fluoro-6-(8-methyl-2,3-dihydro-1H-pyrido[2,3-b][1,4]oxazin-7-yl)isoquinolin-3-yl)-3-cyclopropylurea]: the inhibitory constant (Ki) (read-out: HPK1 Ki) was < 0.013 nM.

Take `CNC(=O)Nc1cc2cc(-c3cnc4c(c3C)NCCO4)c(F)c(N)c2cn1` [Compound 704, 1-(8-Amino-7-fluoro-6-(8-methyl-2,3-dihydro-1H-pyrido[2,3-b][1,4]oxazin-7-yl)isoquinolin-3-yl)-3-methylurea]: the Ki (read-out: HPK1 Ki) was < 0.013 nM.

In the case of `CNC(=O)Nc1cc2cc(-c3cnc4c(c3C)NCCC4)c(F)c(N)c2cn1` [Compound 705, 1-[8-Amino-7-fluoro-6-(4-methyl-5,6,7,8-tetrahydro-1,5-naphthyridin-3-yl)-3-isoquinolyl]-3-methyl-urea], under “read-out: HPK1 Ki”, the Ki was 0.15 nM.

In the case of `Cc1c(-c2cc3cc(NC(=O)NC4CCCC4)ncc3c(N)c2F)cnc2c1NCCO2` [Compound 706, 1-(8-Amino-7-fluoro-6-(8-methyl-2,3-dihydro-1H-pyrido[2,3-b][1,4]oxazin-7-yl)isoquinolin-3-yl)-3-cyclopentylurea], for the setting “read-out: HPK1 Ki”, the inhibitory constant (Ki) was < 0.013 nM.

Turning to `Cc1c(-c2cc3cc(NC(=O)NC4CCC4)ncc3c(N)c2F)cnc2c1NCCO2` [Compound 707, 1-(8-Amino-7-fluoro-6-(8-methyl-2,3-dihydro-1H-pyrido[2,3-b][1,4]oxazin-7-yl)isoquinolin-3-yl)-3-cyclobutylurea], the Ki (read-out: HPK1 Ki) was < 0.013 nM.

Turning to `Cc1c(-c2cc3cc(NC(=O)NC4CC5(C4)CN(CC(F)(F)F)C5)ncc3c(N)c2F)cnc2c1NCCO2` [Compound 708, 1-(8-Amino-7-fluoro-6-(8-methyl-2,3-dihydro-1H-pyrido[2,3-b][1,4]oxazin-7-yl)isoquinolin-3-yl)-3-(2-(2,2,2-trifluoroethyl)-2-azaspiro[3.3]heptan-6-yl)urea], the inhibitory constant (Ki) (read-out: HPK1 Ki) is < 0.013 nM.

As to `CC(=O)N1CC2(CC(NC(=O)Nc3cc4cc(-c5cnc6c(c5C)NCCO6)c(F)c(N)c4cn3)C2)C1` [Compound 709, 1-(2-Acetyl-2-azaspiro[3.3]heptan-6-yl)-3-(8-amino-7-fluoro-6-(8-methyl-2,3-dihydro-1H-pyrido[2,3-b][1,4]oxazin-7-yl)isoquinolin-3-yl)urea], under “read-out: HPK1 Ki”, the inhibitory constant (Ki) was < 0.013 nM.

Turning to `Cc1c(-c2cc3cc(NC(=O)N[C@H]4[C@@H]5COC[C@@H]54)ncc3c(N)c2F)cnc2c1NCCO2` [Compound 713a, 1-(8-Amino-7-fluoro-6-(8-methyl-2,3-dihydro-1H-pyrido[2,3-b][1,4]oxazin-7-yl)isoquinolin-3-yl)-3-((1R,5S,6r)-3-oxabicyclo[3.1.0]hexan-6-yl)urea], the Ki (read-out: HPK1 Ki) was < 0.013 nM.

For `Cc1c(-c2cc3cc(NC(=O)NC4CC(F)(F)C4)ncc3c(N)c2F)cnc2c1NCCO2` [Compound 714, 1-(8-Amino-7-fluoro-6-(8-methyl-2,3-dihydro-1H-pyrido[2,3-b][1,4]oxazin-7-yl)isoquinolin-3-yl)-3-(3,3-difluorocyclobutyl)urea], the inhibitory constant (Ki) (read-out: HPK1 Ki) was < 0.013 nM.

Take `Cc1c(-c2cc3cc(NC(=O)N[C@@H]4CCOC4)ncc3c(N)c2F)cnc2c1NCCC2` [Compound 719a, (R)-1-(8-Amino-7-fluoro-6-(4-methyl-5,6,7,8-tetrahydro-1,5-naphthyridin-3-yl)isoquinolin-3-yl)-3-(tetrahydrofuran-3-yl)urea]: the Ki (read-out: HPK1 Ki) came out at 0.016 nM.

`CCNC(=O)Nc1cc2cc(-c3cnc4c(c3C)NCCO4)c(F)c(N)c2cn1` [Compound 720, 1-(8-Amino-7-fluoro-6-(8-methyl-2,3-dihydro-1H-pyrido[2,3-b][1,4]oxazin-7-yl)isoquinolin-3-yl)-3-ethylurea]: the inhibition constant Ki (read-out: HPK1 Ki) was < 0.013 nM.

Regarding `Cc1c(-c2cc3cc(NC(=O)NC4CN(CC(F)(F)F)C4)ncc3c(N)c2F)cnc2c1NCCO2` [Compound 721, 1-(8-Amino-7-fluoro-6-(8-methyl-2,3-dihydro-1H-pyrido[2,3-b][1,4]oxazin-7-yl)isoquinolin-3-yl)-3-(1-(2,2,2-trifluoroethyl)azetidin-3-yl)urea], the inhibitory constant (Ki) (read-out: HPK1 Ki) was < 0.013 nM.

Regarding `Cc1c(-c2cc3cc(NC(=O)N[C@@H]4CCC[C@@H]4F)ncc3c(N)c2F)cnc2c1NCCO2` [Compound 727a, 1-[8-Amino-7-fluoro-6-(8-methyl-2,3-dihydro-1H-pyrido[2,3-b][1,4]oxazin-7-yl)-3-isoquinolyl]-3-[(1R,2S)-2-fluorocyclopentyl]urea], where the note is “read-out: HPK1 Ki”, the inhibition constant (Ki) was < 0.013 nM.

In the case of `CO[C@@H]1CC[C@@H](NC(=O)Nc2cc3cc(-c4cnc5c(c4C)NCCO5)c(F)c(N)c3cn2)C1` [Compound 730a, 1-(8-amino-7-fluoro-6-(8-methyl-2,3-dihydro-1H-pyrido[2,3-b][1,4]oxazin-7-yl)isoquinolin-3-yl)-3-((1R,3R)-3-methoxycyclopentyl)urea], the Ki (HPK1 Ki) was < 0.013 nM.

Turning to `CO[C@H]1CC[C@H](NC(=O)Nc2cc3cc(-c4cnc5c(c4C)NCCO5)c(F)c(N)c3cn2)C1` [Compound 730b, 1-(8-amino-7-fluoro-6-(8-methyl-2,3-dihydro-1H-pyrido[2,3-b][1,4]oxazin-7-yl)isoquinolin-3-yl)-3-((1S,3S)-3-methoxycyclopentyl)urea], the inhibitory constant (Ki) (HPK1 Ki) is < 0.013 nM.

`CO[C@H]1CC[C@@H](NC(=O)Nc2cc3cc(-c4cnc5c(c4C)NCCO5)c(F)c(N)c3cn2)C1` [Compound 730c, 1-(8-amino-7-fluoro-6-(8-methyl-2,3-dihydro-1H-pyrido[2,3-b][1,4]oxazin-7-yl)isoquinolin-3-yl)-3-((1R,3S)-3-methoxycyclopentyl)urea]: the Ki (HPK1 Ki) was < 0.013 nM.

Take `CO[C@@H]1CC[C@H](NC(=O)Nc2cc3cc(-c4cnc5c(c4C)NCCO5)c(F)c(N)c3cn2)C1` [Compound 730d, 1-(8-amino-7-fluoro-6-(8-methyl-2,3-dihydro-1H-pyrido[2,3-b][1,4]oxazin-7-yl)isoquinolin-3-yl)-3-((1S,3R)-3-methoxycyclopentyl)urea]: the Ki (HPK1 Ki) is < 0.013 nM.

On to `Cc1c(-c2cc3cc(NC(=O)N[C@H]4C[C@H](F)C4)ncc3c(N)c2F)cnc2c1NCCC2` [Compound 732a, 1-(8-amino-7-fluoro-6-(4-methyl-5,6,7,8-tetrahydro-1,5-naphthyridin-3-yl)isoquinolin-3-yl)-3-((1r,3r)-3-fluorocyclobutyl)urea], for which the inhibition constant (Ki) (read-out: HPK1 Ki) is < 0.013 nM.

With `CO[C@H]1C[C@H](NC(=O)Nc2cc3cc(-c4cnc5c(c4C)NCCO5)c(F)c(N)c3cn2)C1` [Compound 733a, 1-[8-Amino-7-fluoro-6-(8-methyl-2,3-dihydro-1H-pyrido[2,3-b][1,4]oxazin-7-yl)-3-isoquinolyl]-3-(3-methoxycyclobutyl)urea], the Ki (read-out: HPK1 Ki) was < 0.013 nM.
